Measurements reported in patent US9364480B2, “Pharmaceutical composition for preventing or treating cancer, containing enoblock as active ingredient” (GWANGJU INSTITUTE OF SCIENCE AND TECHNOLOGY, priority 2012, dated 2016).
Entries after “also recorded” stand apart in the source; their conditions may differ.

Key:
[1] = test system: Huh7 hepatocytes; test: Glucose uptake with fluorescent glucose probe 2-NBDG, hepatocytes; assay type: cell-based; settings: 10 μM, 24 h
[2] = test system: AKT expression in HCT116 cancer cells; test: AKT Western blot; assay type: cell-based; settings: 24 h treatment
Experimental: (§1) FIG. 7. […] (b) Microscopic images of crystal violet stained HCT116 cells invaded onto the transwell inserts (scale bar=100 μm). […] (d) Microscopic images of crystal violet stained HCT116 cells migrated onto the transwell inserts (scale bar=100 μm). […] Cells were treated with 10 nM taxol and 10 nM vincristine, with or without 10 μM ENOblock. Error=SD; *=P<0.05 between the groups indicated on the graph. […] For the AKT Western blot, cells were treated with ENOblock for 24 h; for the Bcl-Xl Western blot, cells were treated with ENOblock for 48 h.

[3] = test system: HCT116 cancer cells; test: Sensitivity to antitubulin chemotherapeutics taxol and vincristine; assay type: cell-based; settings: 10 nM taxol or 10 nM vincristine with or without 10 μM ENOblock
Experimental: as §1

[4] = test system: zebrafish larvae; test: Measurement of glucose uptake in zebrafish (2-NBDG); assay type: in vivo; design: 2-NBDG signal in lysed larvae (fluorescent plate reader): dose or concentration left out as unconfirmed
Experimental: FIG. 12. […] (a) Schematic of our approach to measure the effect of ENOblock treatment on […] in zebrafish.
At 72 hpf, larvae were placed into a 96-well plate (6 eggs/well in 200 μL E3 water supplemented with 0.2 mM 2-phenylthiourea; Sigma). Drug of interest was added for […]. The solution was then replaced with E3 water supplemented with 600 μM 2-NBDG and incubated for 3 h. The larva were washed with E3 water and anesthetized with 0.02% tricaine-supplemented E3 water. One larva was then placed on a chamber slide, containing 3% methylcellulose in E3 water, for fluorescent microscopy (Leica DM2500 microscope equipped with a DFC425 C digital camera). Images were captured at 50× magnification. The remaining 5 larvae where lysed with 120 μL of CelLytic M solution (Sigma-Aldrich) and sonication (4° C., 10″/5″ pulse, 10 min). Lysed larvae were centrifuged at 10000 rpm for 10 min. 100 μL of the supernatant was transferred to a 96-well plate and fluorescence was measured with a fluorescent microplate reader (SpectraMAX Gemini XS, Molecular Devices; λex=466 nm […]).

[5] = test system: HCT116 cancer cells; test: Cancer cell migration (transwell inserts, crystal violet); assay type: cell-based; settings: HCT116, normoxia
Experimental: as §1

[6] = test system: HEK kidney cells; test: Glucose uptake with fluorescent glucose probe 2-NBDG, kidney cells; assay type: cell-based; settings: 10 μM, 24 h
[7] = test system: glucose 6-phosphatase (G6 Pase) expression in hepatocytes; test: G6 Pase expression in hepatocytes; assay type: cell-based; settings: 10 μM, 24 h
Description: FIG. 10. […] Error=SD; *=P<0.05 compared to the no drug (DMSO-treated) group. […] Error=SD; *=P<0.05 for reduced PEPCK expression compared to the no drug (DMSO-treated) group.

[8] = test system: Bcl-Xl expression in HCT116 cancer cells; test: Bcl-Xl Western blot; assay type: cell-based; settings: 48 h treatment
Experimental: as §1

[9] = target: T1, Enolase purified from rabbit muscle (Oryctolagus cuniculus, UniProt P25704); test: Enolase activity assay; assay type: biochemical
T1 construct: Enolase purified from rabbit muscle was purchased from Sigma-Aldrich; purchased Sigma-Aldrich; host or cells: rabbit muscle
Experimental: FIG. 4. […] (a) Affinity chromatography study for ENOblock in HCT116 cancer cells. […] (b) Sequence identification for the enolase monomer subunit. […] Mascot scores above 100 were deemed to be significant. […] Twenty micrograms of cell lysate from YD-10B oral cancer cells or Huh7 hepatocytes were used as positive controls. […] As a positive control, ENOblock affinity matrix was incubated with 200 μg of HCT 116 cell lysate; 50 μg cell lysate from HCT116 cancer cells was used as a positive control for the enolase antibody.
Enolase purified from rabbit muscle was purchased from Sigma-Aldrich. A single unit of enolase is defined as the amount of enzyme that produces 1 μmol of phosphoenol pyruvate from phospho-D-glycerate/min in standard assay.^52 Enolase activity assay was measured at 37° C. by incubating pure enolase (3-9 U) in a buffer containing 50 mM imidazole-HCl (pH 6.8)(JUNSEI), 2.0 mM MgSO4 (JUNSEI) and 400 mM KCl (JUNSEI) in the absence or presence of ENOblock or NaF (Sigma). The reaction was initiated by adding 1 μmol of 2-phospho-D-glycerate, and the OD was measured after 10 min of reaction time with a spectrophometer at 240 nm.

T1 sequence (P25704 whole entry): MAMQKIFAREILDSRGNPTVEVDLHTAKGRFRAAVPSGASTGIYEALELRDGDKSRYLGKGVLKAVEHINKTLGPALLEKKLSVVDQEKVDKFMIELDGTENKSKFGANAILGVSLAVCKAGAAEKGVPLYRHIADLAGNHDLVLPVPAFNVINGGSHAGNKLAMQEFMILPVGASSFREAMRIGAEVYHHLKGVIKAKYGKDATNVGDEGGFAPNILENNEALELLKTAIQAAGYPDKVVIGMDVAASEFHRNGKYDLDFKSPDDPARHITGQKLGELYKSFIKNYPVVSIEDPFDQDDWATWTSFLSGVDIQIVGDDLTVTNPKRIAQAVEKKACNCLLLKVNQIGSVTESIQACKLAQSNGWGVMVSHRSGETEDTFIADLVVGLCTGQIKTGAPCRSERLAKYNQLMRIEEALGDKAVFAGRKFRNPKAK

## NCCOCCOCCNC(=O)Cc1ccc(Nc2nc(NCc3ccc(F)cc3)nc(NCC3CCCCC3)n2)cc1 [ENOblock]
[1]
  glucose uptake (2-NBDG): induced glucose uptake
[2]
  AKT expression: decreased the expression of AKT and Bcl-Xl
[3]
  sensitivity to taxol and vincristine (cytotoxicity): increased sensitivity to the antitubulin chemotherapeutics taxol and vincristine
[4]; 10 μM, 4 h
  glucose uptake in larvae (2-NBDG fluorescence microscopy): increased glucose uptake in the zebrafish larvae
[4]; 72 hpf larvae, 10 μM, 4 h, vs 2-NBDG alone
  2-NBDG fluorescence signal intensity in the eye: induced significantly greater fluorescent tagged glucose uptake in the zebrafish eye
[4]; 72 hpf zebrafish
  2-NBDG signal in lysed larvae (fluorescent plate reader): induced glucose uptake
[5]
  cancer cell migration: inhibited cell migration dose-dependently
  inhibition of cell migration compared with LY294002: more effective than LY294002 at inhibiting cell migration
[6]
  glucose uptake (2-NBDG): induced glucose uptake
[7]
  glucose 6-phosphatase (G6 Pase) expression: did not affect expression of the enzymes
[8]
  Bcl-Xl expression: decreased the expression of AKT and Bcl-Xl
[9]; OD 240 nm, 37° C., 10 min
  inhibition of purified enolase activity: dose-dependently inhibited the activity of purified enolase; also recorded: enolase activity can be inhibited by ENOblock dose-dependently
[9]; purified enolase
  enolase inhibitory concentration compared with sodium fluoride (NaF): markedly lower concentration than the wellknown enolase inhibitor
  treatment concentration reducing enolase activity to the level approximated with 1 mM NaF: 2.5 µM
